Results published in ChEMBL document CHEMBL3045609, “Synthesis and fungicidal activity of tubulin polymerisation promoters. Part 1: pyrido[2,3-b]pyrazines” (2010).
Converted amounts (≈) assume the structure as drawn.

How the values were obtained:
Type in all cases: functional
Puccinia triticina = experiment: Antifungal activity against Puccinia triticina infected 2 weeks old wheat plant assessed as reduction of diseased leaf area treated 1 day before infection measured after 11 days
Zymoseptoria tritici = experiment: Antifungal activity against Zymoseptoria tritici infected 2 weeks old wheat plant assessed as reduction of diseased leaf area treated 1 day before infection measured after 16 to 18 days
Pyricularia grisea = experiment: Antifungal activity against Magnaporthe grisea infected 3 weeks old rice plant assessed as reduction of diseased leaf area treated 2 days before infection measured after 6 days

## COc1nc2nccnc2c(NCC(C)C)c1-c1c(F)cccc1Cl
Puccinia triticina
  EC80: 134 µg/mL (≈ 371 µM)
Zymoseptoria tritici
  EC80: > 200 µg/mL
Pyricularia grisea
  EC80: 110 µg/mL (≈ 305 µM)

## COc1nc2nccnc2c(NCC(C)C)c1-c1ncc(Cl)cc1F
Puccinia triticina
  EC80: > 200 µg/mL
Zymoseptoria tritici
  EC80: 10 µg/mL (≈ 27.6 µM)
Pyricularia grisea
  EC80: 29 µg/mL (≈ 80.2 µM)

## COc1nc2nccnc2c(N[C@H](C)C(C)C)c1-c1c(F)cc(F)cc1F
Puccinia triticina
  EC80: 129 µg/mL (≈ 343 µM)
Zymoseptoria tritici
  EC80: 32 µg/mL (≈ 85 µM)
Pyricularia grisea
  EC80: 100 µg/mL (≈ 266 µM)

## C=CCOC(=O)[C@@H](Nc1c(-c2c(F)cc(F)cc2F)c(F)nc2nccnc12)C(C)C
Puccinia triticina
  EC80: 31 µg/mL (≈ 71.4 µM)
Zymoseptoria tritici
  EC80: 21 µg/mL (≈ 48.3 µM)
Pyricularia grisea
  EC80: 110 µg/mL (≈ 253 µM)

## COc1nc2nccnc2c(N[C@H](C)C(C)C)c1-c1ncc(Cl)cc1Cl
Puccinia triticina
  EC80: 26 µg/mL (≈ 66.3 µM)
Zymoseptoria tritici
  EC80: < 6 µg/mL
Pyricularia grisea
  EC80: 15 µg/mL (≈ 38.2 µM)

## CC(C)(C)Nc1c(-c2c(F)cc(F)cc2F)c(F)nc2nccnc12
Puccinia triticina
  EC80: > 200 µg/mL
Zymoseptoria tritici
  EC80: 19 µg/mL (≈ 54.2 µM)
Pyricularia grisea
  EC80: 35 µg/mL (≈ 99.9 µM)

## CC(C)[C@@H](C)Nc1c(-c2c(F)cc(F)cc2F)c(F)nc2nccnc12
Puccinia triticina
  EC80: < 6 µg/mL
Zymoseptoria tritici
  EC80: < 2 µg/mL
Pyricularia grisea
  EC80: 11 µg/mL (≈ 30.2 µM)

## COc1nc2nccnc2c(NCC(C)C)c1-c1c(F)cc(F)cc1F
Puccinia triticina
  EC80: 35 µg/mL (≈ 96.6 µM)
Zymoseptoria tritici
  EC80: 50 µg/mL (≈ 138 µM)
Pyricularia grisea
  EC80: 42 µg/mL (≈ 116 µM)

## CCC(C)Nc1c(-c2c(F)cc(F)cc2F)c(F)nc2nccnc12 (configuration not stated)
Puccinia triticina
  EC80: 56 µg/mL (≈ 160 µM)
Zymoseptoria tritici
  EC80: 26 µg/mL (≈ 74.2 µM)
Pyricularia grisea
  EC80: 9 µg/mL (≈ 25.7 µM)

## CC(C)CNc1c(-c2cc(F)ccc2F)c(F)nc2nccnc12
Puccinia triticina
  EC80: 118 µg/mL (≈ 355 µM)
Zymoseptoria tritici
  EC80: 80 µg/mL (≈ 241 µM)
Pyricularia grisea
  EC80: > 200 µg/mL

## C[C@H](Nc1c(-c2c(F)cc(F)cc2F)c(F)nc2nccnc12)C(F)(F)F
Puccinia triticina
  EC80: 39 µg/mL (≈ 99.9 µM)
Zymoseptoria tritici
  EC80: 5 µg/mL (≈ 12.8 µM)
Pyricularia grisea
  EC80: 35 µg/mL (≈ 89.7 µM)

## Fc1cc(F)c(-c2c(F)nc3nccnc3c2NC(C2CC2)C(F)(F)F)c(F)c1 (configuration not stated)
Puccinia triticina
  EC80: 16 µg/mL (≈ 38.4 µM)
Zymoseptoria tritici
  EC80: < 6 µg/mL
Pyricularia grisea
  EC80: 104 µg/mL (≈ 250 µM)

## CC(C)[C@@H](C)Nc1c(-c2c(F)cc(F)cc2F)c(Cl)nc2nccnc12
Puccinia triticina
  EC80: 77 µg/mL (≈ 202 µM)
Zymoseptoria tritici
  EC80: 47 µg/mL (≈ 123 µM)
Pyricularia grisea
  EC80: > 200 µg/mL

## Fc1cc(F)c(-c2c(F)nc3nccnc3c2NCC(F)(F)F)c(F)c1
Puccinia triticina
  EC80: 20 µg/mL (≈ 53.2 µM)
Zymoseptoria tritici
  EC80: 16 µg/mL (≈ 42.5 µM)
Pyricularia grisea
  EC80: 11 µg/mL (≈ 29.2 µM)

## CC(C)CNc1c(-c2cccc(F)c2F)c(F)nc2nccnc12
Puccinia triticina
  EC80: 157 µg/mL (≈ 472 µM)
Zymoseptoria tritici
  EC80: 74 µg/mL (≈ 223 µM)
Pyricularia grisea
  EC80: > 200 µg/mL

## COC(=O)[C@@H](Nc1c(-c2c(F)cc(F)cc2F)c(F)nc2nccnc12)C(C)C
Puccinia triticina
  EC80: < 6 µg/mL
Zymoseptoria tritici
  EC80: 7 µg/mL (≈ 17.1 µM)
Pyricularia grisea
  EC80: 57 µg/mL (≈ 140 µM)

## CCC(Nc1c(-c2c(F)cc(F)cc2F)c(F)nc2nccnc12)C(F)(F)F (configuration not stated)
Puccinia triticina
  EC80: 10 µg/mL (≈ 24.7 µM)
Zymoseptoria tritici
  EC80: < 2 µg/mL
Pyricularia grisea
  EC80: 10 µg/mL (≈ 24.7 µM)

## COc1nc2nccnc2c(NCC(C)C)c1C#Cc1ccccc1
Puccinia triticina
  EC80: > 200 µg/mL
Zymoseptoria tritici
  EC80: 67 µg/mL (≈ 202 µM)
Pyricularia grisea
  EC80: > 200 µg/mL

## CC(C)C(C)Nc1c(-c2c(F)cc(F)cc2F)c(F)nc2nccnc12 (configuration not stated)
Puccinia triticina
  EC80: < 20 µg/mL
Zymoseptoria tritici
  EC80: 15 µg/mL (≈ 41.2 µM)
Pyricularia grisea
  EC80: 26 µg/mL (≈ 71.4 µM)
